Measurements: the CheMixHub ionic liquid set
± gives the uncertainty stated by the source.

Assay: xn = mol fraction of the nth substance listed
Settings: 100 kPa

CCCCCCCCCCCCCCCC[N+](C)(C)C.[Br-] + NCC(=O)NCC(=O)O + O
Settings | electrical conductivity [S/m]
293.15 K, x1 = 3.61e-06, x2 = 0.0001802 | 0.0032 ± 0.0011
293.15 K, x1 = 5.41e-06, x2 = 0.0001802 | 0.0042 ± 0.0011
293.15 K, x1 = 7.22e-06, x2 = 0.0001802 | 0.0053 ± 0.0011
293.15 K, x1 = 9.02e-06, x2 = 0.0001802 | 0.006 ± 0.001
293.15 K, x1 = 3.428e-05, x2 = 0.0001802 | 0.0097 ± 0.001
293.15 K, x1 = 3.608e-05, x2 = 0.0001802 | 0.0099 ± 0.001
298.15 K, x1 = 1.8e-06, x2 = 9.009e-05 | 0.0016 ± 0.0011
298.15 K, x1 = 3.61e-06, x2 = 9.009e-05 | 0.0027 ± 0.0011
298.15 K, x1 = 5.41e-06, x2 = 9.009e-05 | 0.0037 ± 0.0011
298.15 K, x1 = 5.41e-06, x2 = 0.0001802 | 0.0044 ± 0.0011
298.15 K, x1 = 7.21e-06, x2 = 9.009e-05 | 0.0048 ± 0.0011
298.15 K, x1 = 7.22e-06, x2 = 0.0001802 | 0.0054 ± 0.001
298.15 K, x1 = 9.02e-06, x2 = 0.0001802 | 0.0062 ± 0.0011
298.15 K, x1 = 1.082e-05, x2 = 9.009e-05 | 0.0065 ± 0.0011
298.15 K, x1 = 1.082e-05, x2 = 0.0001802 | 0.0072 ± 0.0011
298.15 K, x1 = 1.262e-05, x2 = 1.802e-05 | 0.0046 ± 0.001
298.15 K, x1 = 2.885e-05, x2 = 9.009e-05 | 0.0094 ± 0.001
298.15 K, x1 = 3.067e-05, x2 = 0.0001802 | 0.0098 ± 0.001
298.15 K, x1 = 3.245e-05, x2 = 9.009e-05 | 0.0099 ± 0.001
303.15 K, x1 = 1.8e-06, x2 = 9.009e-05 | 0.0018 ± 0.0012
303.15 K, x1 = 3.61e-06, x2 = 9.009e-05 | 0.0029 ± 0.0011
303.15 K, x1 = 3.61e-06, x2 = 0.0001802 | 0.0036 ± 0.001
303.15 K, x1 = 5.41e-06, x2 = 0.0001802 | 0.0046 ± 0.001
303.15 K, x1 = 7.21e-06, x2 = 9.009e-05 | 0.005 ± 0.0012
303.15 K, x1 = 7.22e-06, x2 = 0.0001802 | 0.0055 ± 0.001
303.15 K, x1 = 9.02e-06, x2 = 9.009e-05 | 0.006 ± 0.0012
303.15 K, x1 = 9.02e-06, x2 = 0.0001802 | 0.0064 ± 0.0011
303.15 K, x1 = 1.081e-05, x2 = 1.802e-05 | 0.0044 ± 0.001
303.15 K, x1 = 1.082e-05, x2 = 9.009e-05 | 0.007 ± 0.0012
303.15 K, x1 = 1.082e-05, x2 = 0.0001802 | 0.0073 ± 0.0011
303.15 K, x1 = 1.262e-05, x2 = 1.802e-05 | 0.0051 ± 0.0011
303.15 K, x1 = 1.262e-05, x2 = 9.009e-05 | 0.0078 ± 0.0011
303.15 K, x1 = 1.263e-05, x2 = 0.0001802 | 0.0081 ± 0.0011
303.15 K, x1 = 1.622e-05, x2 = 1.802e-05 | 0.0061 ± 0.001
303.15 K, x1 = 1.623e-05, x2 = 9.009e-05 | 0.0089 ± 0.001
303.15 K, x1 = 1.624e-05, x2 = 0.0001802 | 0.009 ± 0.001
303.15 K, x1 = 1.802e-05, x2 = 1.802e-05 | 0.0065 ± 0.001
303.15 K, x1 = 1.803e-05, x2 = 9.009e-05 | 0.0092 ± 0.001
303.15 K, x1 = 1.804e-05, x2 = 0.0001802 | 0.0098 ± 0.0011
303.15 K, x1 = 1.982e-05, x2 = 1.802e-05 | 0.007 ± 0.001
303.15 K, x1 = 1.983e-05, x2 = 9.009e-05 | 0.0094 ± 0.001
303.15 K, x1 = 1.984e-05, x2 = 0.0001802 | 0.0099 ± 0.001
303.15 K, x1 = 2.164e-05, x2 = 9.009e-05 | 0.0095 ± 0.001
303.15 K, x1 = 2.344e-05, x2 = 9.009e-05 | 0.0097 ± 0.001
303.15 K, x1 = 2.524e-05, x2 = 9.009e-05 | 0.0099 ± 0.0011
303.15 K, x1 = 2.703e-05, x2 = 1.802e-05 | 0.0079 ± 0.001
303.15 K, x1 = 2.883e-05, x2 = 1.802e-05 | 0.0081 ± 0.001
303.15 K, x1 = 3.064e-05, x2 = 1.802e-05 | 0.0082 ± 0.001
303.15 K, x1 = 3.244e-05, x2 = 1.802e-05 | 0.0084 ± 0.001
303.15 K, x1 = 3.424e-05, x2 = 1.802e-05 | 0.0084 ± 0.001
303.15 K, x1 = 3.604e-05, x2 = 1.802e-05 | 0.0086 ± 0.001
308.15 K, x1 = 1.8e-06, x2 = 9.009e-05 | 0.0018 ± 0.0011
308.15 K, x1 = 1.8e-06, x2 = 0.0001802 | 0.003 ± 0.0011
308.15 K, x1 = 3.61e-06, x2 = 9.009e-05 | 0.003 ± 0.0012
308.15 K, x1 = 3.61e-06, x2 = 0.0001802 | 0.0039 ± 0.001
308.15 K, x1 = 5.41e-06, x2 = 9.009e-05 | 0.0042 ± 0.0012
308.15 K, x1 = 5.41e-06, x2 = 0.0001802 | 0.0049 ± 0.001
308.15 K, x1 = 7.21e-06, x2 = 9.009e-05 | 0.0052 ± 0.0011
308.15 K, x1 = 7.22e-06, x2 = 0.0001802 | 0.0057 ± 0.0011
308.15 K, x1 = 9.02e-06, x2 = 0.0001802 | 0.0066 ± 0.0011
308.15 K, x1 = 1.081e-05, x2 = 1.802e-05 | 0.0047 ± 0.001
308.15 K, x1 = 1.262e-05, x2 = 1.802e-05 | 0.0055 ± 0.0011
308.15 K, x1 = 1.262e-05, x2 = 9.009e-05 | 0.0081 ± 0.0012
308.15 K, x1 = 1.442e-05, x2 = 1.802e-05 | 0.006 ± 0.001
308.15 K, x1 = 1.622e-05, x2 = 1.802e-05 | 0.0063 ± 0.0011
308.15 K, x1 = 1.624e-05, x2 = 0.0001802 | 0.0099 ± 0.0012
308.15 K, x1 = 1.802e-05, x2 = 1.802e-05 | 0.0068 ± 0.0011
308.15 K, x1 = 1.803e-05, x2 = 9.009e-05 | 0.01 ± 0.0011
308.15 K, x1 = 2.163e-05, x2 = 1.802e-05 | 0.0076 ± 0.001
308.15 K, x1 = 2.343e-05, x2 = 1.802e-05 | 0.0077 ± 0.001
308.15 K, x1 = 2.523e-05, x2 = 1.802e-05 | 0.008 ± 0.0011
308.15 K, x1 = 2.703e-05, x2 = 1.802e-05 | 0.0082 ± 0.0011
308.15 K, x1 = 2.883e-05, x2 = 1.802e-05 | 0.0084 ± 0.0011
308.15 K, x1 = 3.064e-05, x2 = 1.802e-05 | 0.0084 ± 0.0011
308.15 K, x1 = 3.244e-05, x2 = 1.802e-05 | 0.0086 ± 0.0011
308.15 K, x1 = 3.424e-05, x2 = 1.802e-05 | 0.0087 ± 0.0011
308.15 K, x1 = 3.604e-05, x2 = 1.802e-05 | 0.009 ± 0.0012
313.15 K, x1 = 1.8e-06, x2 = 9.009e-05 | 0.0019 ± 0.0012
313.15 K, x1 = 1.8e-06, x2 = 0.0001802 | 0.0031 ± 0.001
313.15 K, x1 = 3.61e-06, x2 = 9.009e-05 | 0.0033 ± 0.0013
313.15 K, x1 = 3.61e-06, x2 = 0.0001802 | 0.004 ± 0.001
313.15 K, x1 = 5.41e-06, x2 = 9.009e-05 | 0.0045 ± 0.0012
313.15 K, x1 = 5.41e-06, x2 = 0.0001802 | 0.005 ± 0.001
313.15 K, x1 = 7.21e-06, x2 = 1.802e-05 | 0.0039 ± 0.0011
313.15 K, x1 = 7.21e-06, x2 = 9.009e-05 | 0.0055 ± 0.0011
313.15 K, x1 = 7.22e-06, x2 = 0.0001802 | 0.0059 ± 0.0011
313.15 K, x1 = 9.02e-06, x2 = 9.009e-05 | 0.0064 ± 0.0012
313.15 K, x1 = 9.02e-06, x2 = 0.0001802 | 0.0067 ± 0.0011
313.15 K, x1 = 1.082e-05, x2 = 9.009e-05 | 0.0075 ± 0.0013
313.15 K, x1 = 1.082e-05, x2 = 0.0001802 | 0.0078 ± 0.0011
313.15 K, x1 = 1.262e-05, x2 = 1.802e-05 | 0.006 ± 0.0011
313.15 K, x1 = 1.262e-05, x2 = 9.009e-05 | 0.0084 ± 0.0012
313.15 K, x1 = 1.263e-05, x2 = 0.0001802 | 0.0085 ± 0.0012
313.15 K, x1 = 1.442e-05, x2 = 1.802e-05 | 0.0065 ± 0.0011
313.15 K, x1 = 1.442e-05, x2 = 9.009e-05 | 0.0091 ± 0.0013
313.15 K, x1 = 1.443e-05, x2 = 0.0001802 | 0.0094 ± 0.0013
313.15 K, x1 = 1.622e-05, x2 = 1.802e-05 | 0.0069 ± 0.0011
313.15 K, x1 = 1.802e-05, x2 = 1.802e-05 | 0.0075 ± 0.0011
313.15 K, x1 = 1.982e-05, x2 = 1.802e-05 | 0.0078 ± 0.001
313.15 K, x1 = 2.163e-05, x2 = 1.802e-05 | 0.0081 ± 0.0011
313.15 K, x1 = 2.343e-05, x2 = 1.802e-05 | 0.0082 ± 0.0011
313.15 K, x1 = 2.523e-05, x2 = 1.802e-05 | 0.0084 ± 0.0011
313.15 K, x1 = 2.703e-05, x2 = 1.802e-05 | 0.0086 ± 0.0011
313.15 K, x1 = 2.883e-05, x2 = 1.802e-05 | 0.0089 ± 0.0011
313.15 K, x1 = 3.064e-05, x2 = 1.802e-05 | 0.009 ± 0.0011
313.15 K, x1 = 3.244e-05, x2 = 1.802e-05 | 0.0093 ± 0.0011
313.15 K, x1 = 3.424e-05, x2 = 1.802e-05 | 0.0095 ± 0.0012
313.15 K, x1 = 3.604e-05, x2 = 1.802e-05 | 0.0097 ± 0.0012
